Data published in patent US20160194299A1 (priority 2013, published 2016).
Converted amounts (≈) assume the structure as drawn. Like-named read-outs stand apart in the source and are kept apart here.

What was measured:
Mtb [1] = test: microbe, parasite or virus in culture; assay type: cell-based, Mycobacterium tuberculosis; details: Mycobacterium tuberculosis
Mtb [2] = test: microbe, parasite or virus in culture; assay type: cell-based, Mycobacterium tuberculosis; details: Mycobacterium tuberculosis, read-out: MIC (III)
in vitro = details: African green monkey
[3] = read-out: MIC, microplate alamar blue assay (MABA; I)

SMILES | MIC (Mtb [1]; read-out: MIC (I)) [µg/mL] | MIC (Mtb [2]) [µg/mL] | CC50 (in vitro) [µg/mL] | MIC (Mtb [1]; [3]) [µg/mL]
CC(C)(C)C(=O)Nc1cc(C(=O)Nc2sccc2C(=O)NC(=O)OCCF)ccn1 [Compound 29] | < 1 | > 25 | 25 to 50 (≈ 57.3 to 115 µM) | 
CCOC(=O)NC(=O)c1ccsc1NC(=O)c1nc2c(N3CCN(C)CC3)ccnc2s1 [Compound 269] | < 1 | 5 to 25 (≈ 10.5 to 52.7 µM) | > 50 | 
CC(OC(=O)NC(=O)c1ccsc1NC(=O)c1nc2cnccc2s1)C(F)(F)F (stereo not shown) [Compound 325] | < 1 | > 25 |  | 
CCOC(=O)NC(=O)c1ccsc1NC(=O)c1cc2ncccn2n1 [Compound 250] | < 1 | 5 to 25 (≈ 13.9 to 69.6 µM) |  | 
CCOC(=O)NC(=O)c1ccsc1NC(=O)c1cnc2ccnn2c1 [Compound 81] | < 1 | > 25 |  | 
CCOC(=O)NC(=O)c1ccsc1NC(=O)c1nc2c(s1)CCN(CC)C2 [Compound 79] | 1 to 3 (≈ 2.45 to 7.34 µM) | > 25 |  | 
O=C(NC(=O)c1ccsc1NC(=O)c1cnc2ccnn2c1)OC1CCC1 [Compound 324] | < 1 | > 25 |  | 
O=C(NC(=O)c1ccsc1NC(=O)c1nc2ccccc2s1)OC1CCCC1 [Compound 31] | < 1 |  | > 50 | 
CCOC(=O)NC(=O)c1ccsc1NC(=O)c1nc2cc(C#N)cnc2s1 [Compound 54] | < 1 | > 25 |  | 
CCOC(=O)NC(=O)c1ccsc1NC(=O)c1ccc2nonc2c1 [Compound 402] |  |  | < 25 | < 1
CCOC(=O)NC(=O)c1c(C2CC2)csc1NC(=O)c1nc2ccccc2s1 [Compound 245] | > 3 | > 25 |  | 
CCOC(=O)NC(=O)c1ccsc1NC(=O)c1cn2cc(S(C)(=O)=O)ccc2n1 [Compound 438] |  |  | 25 to 50 (≈ 57.3 to 115 µM) | < 1
CC(C)OC(=O)NC(=O)c1ccsc1NC(=O)c1ccc2nonc2c1 [Compound 403] |  |  | < 25 | < 1
CC(OC(=O)NC(=O)c1ccsc1NC(=O)c1nc2ccccc2s1)C(F)(F)F (stereo not shown) [Compound 24] | < 1 |  | < 25 | 
CCOC(=O)NC(=O)c1ccsc1NC(=O)c1cn2ccncc2n1 [Compound 78] | > 3 | > 25 |  | 
CCOC(=O)NC(=O)c1ccsc1NC(=O)c1ccc2ocnc2c1 [Compound 26] | < 1 |  | > 50 | 
CCOC(=O)NC(=O)c1c(C)csc1NC(=O)c1nc2ccccc2s1 [Compound 44] | 1 to 3 (≈ 2.57 to 7.7 µM) |  | > 50 | 
CN(C)CCOC(=O)NC(=O)c1ccsc1NC(=O)c1nc2ccccc2s1 [Compound 39] | > 3 |  | > 50 | 
CCOC(=O)NC(=O)c1ccsc1NC(=O)c1cccnn1 [Compound 249] | > 3 | > 25 |  | 
CCOC(=O)NC(=O)c1ccsc1NC(=O)c1cc(=O)c2ccccc2o1 [Compound 400] |  |  | < 25 | < 1
CCOC(=O)NC(=O)c1ccsc1NC(=O)c1nc2cc(CN)cnc2s1 [Compound 416] |  |  | > 50 | 1 to 3 (≈ 2.47 to 7.4 µM)
CCOC(=O)NC(=O)c1ccsc1NC(=O)c1nc2cc(CNC(=O)OC(C)(C)C)cnc2s1 [Compound 411] |  |  | 25 to 50 (≈ 49.4 to 98.9 µM) | < 1
CC(C)OC(=O)NC(=O)c1ccsc1NC(=O)c1cn2cc(S(C)(=O)=O)ccc2n1 [Compound 439] |  |  | 25 to 50 (≈ 55.5 to 111 µM) | > 3
CCOC(=O)NC(=O)c1ccsc1NC(=O)c1cn2ccc(C#N)cc2n1 [Compound 405] |  |  | < 25 | 1 to 3 (≈ 2.61 to 7.82 µM)
CCOC(=O)NC(=O)c1ccsc1NC(=O)c1ccc2sc(C(C)(C)C)nc2c1 [Compound 415] |  |  | > 50 | > 3
O=C(Nc1sccc1C(=O)Nc1nccs1)c1nc2cnccc2s1 [Compound 435] |  |  | 25 to 50 (≈ 64.5 to 129 µM) | > 3

SMILES | MIC (Mtb [1]; read-out: MIC (I)) [µg/mL] | MIC (Mtb [2]) [µg/mL] | CC50 (in vitro) [µg/mL] | MIC (Mtb [1]; [3]) [µg/mL]
CCOC(=O)NC(=O)c1c(NC(=O)c2nc3ccccc3s2)sc2c1CCOC2 [Compound 242] |  | > 25 | > 50 | 
CC(C)(OC(=O)NC(=O)c1ccsc1NC(=O)c1nc2ccccc2s1)C(F)(F)F [Compound 25] | < 1 |  | 25 to 50 (≈ 54.7 to 109 µM) | 
CCOC(=O)NC(=O)c1ccsc1NC(=O)c1nc2c(s1)CCN(C(=O)OC)C2 [Compound 95] | < 1 | > 25 |  | 
CC(C)OC(=O)NC(=O)c1ccsc1NC(=O)c1cc2cccc(F)c2s1 [Compound 408] |  |  | < 25 | < 1
CCOC(=O)NC(=O)c1ccsc1NC(=O)c1ccn2nccc2n1 [Compound 252] | > 3 | > 25 |  | 
CC(C)OC(=O)NC(=O)c1ccsc1NC(=O)c1cn2ccccc2n1 [Compound 323] | 1 to 3 (≈ 2.69 to 8.06 µM) | > 25 |  | 
CCOC(=O)NC(=O)c1ccsc1NC(=O)c1cc2cccc(F)c2s1 [Compound 407] |  |  | < 25 | < 1
O=C(NC(=O)c1cc(F)sc1NC(=O)c1nc2ccccc2s1)OCC(F)(F)F [Compound 17] | < 1 |  | < 25 | 
COC(=O)COC(=O)NC(=O)c1ccsc1NC(=O)c1nc2cnccc2s1 [Compound 431] |  |  | 25 to 50 (≈ 59.5 to 119 µM) | < 1
O=C(NC(=O)c1ccsc1NC(=O)c1nc2cnccc2s1)OCC(F)(F)F [Compound 406] |  |  | < 25 | < 1
COC(=O)c1ccsc1NC(=O)c1nc2cnccc2s1 [Compound 432] |  |  | 25 to 50 (≈ 78.3 to 157 µM) | > 3
O=C(NC(=O)c1ccsc1NC(=O)c1nc2ncccc2s1)OCCOCc1ccccc1 [Compound 437] |  |  | < 25 | < 1
O=C(NC(=O)c1ccsc1NC(=O)c1nc2ccccc2s1)OCC(F)F [Compound 40] | < 1 |  | < 25 | 
CC(C)OC(=O)NC(=O)c1ccsc1NC(=O)c1cc(=O)c2ccccc2o1 [Compound 401] |  |  | < 25 | < 1
O=C(Nc1sccc1C(=O)OC1CCCCC1)c1nc2ccccc2s1 [Compound 430] |  |  | > 50 | > 3
CCOC(=O)NC(=O)c1ccsc1NC(=O)c1cnc2ncccn12 [Compound 80] | 1 to 3 (≈ 2.78 to 8.35 µM) | > 25 |  | 
CCOC(=O)NC(=O)c1ccsc1NC(=O)c1nc2c(s1)CCNC2=O [Compound 55] | > 3 | > 25 |  | 
O=C(NC(=O)c1ccsc1NC(=O)c1nc2ccccc2s1)OC1CCCCC1 [Compound 30] | < 1 |  | > 50 | 
CCOC(=O)NC(=O)c1ccsc1NC(=O)c1ccn2nccc2c1 [Compound 251] | < 1 | 5 to 25 (≈ 14 to 69.8 µM) |  | 
COCCOC(=O)NC(=O)c1ccsc1NC(=O)c1nc2ncccc2s1 [Compound 436] |  |  | 25 to 50 (≈ 61.5 to 123 µM) | > 3
CCOC(=O)NC(=O)c1ccsc1NC(=O)c1nc2c(s1)CCN(S(C)(=O)=O)C2 [Compound 96] | < 1 | > 25 |  | 
CC(OC(=O)NC(=O)c1ccsc1NC(=O)c1cnc2ccnn2c1)C(F)(F)F (stereo not shown) [Compound 326] | > 3 | > 25 |  | 
CCOC(=O)NC(=O)c1ccsc1NC(=O)c1cnn2cccnc12 [Compound 253] | > 3 | > 25 |  | 
CC(C)OC(=O)NC(=O)c1ccsc1NC(=O)c1cn2ccc(C#N)cc2n1 [Compound 433] |  |  | 25 to 50 (≈ 62.9 to 126 µM) | 1 to 3 (≈ 2.52 to 7.55 µM)
CCOC(=O)NC(=O)c1ccsc1NC(=O)c1ccc2sc(C(C)C)nc2c1 [Compound 413] |  |  | > 50 | < 1
O=C(Nc1sccc1C(=O)Nc1cccnn1)c1nc2cnccc2s1 [Compound 442] |  |  | 25 to 50 (≈ 65.4 to 131 µM) | 1 to 3 (≈ 2.61 to 7.84 µM)
